Patent US20240350447A1, “DELIVERY METHODS FOR TREATING BRAIN AND CENTRAL NERVOUS SYSTEM DISEASES” (JENIVISION INC., priority 2021, published 2024)
Like-named read-outs stand apart in the source and are kept apart here.

Tests used:
[1] = Biodistribution of DHA after periorbital skin (NIODP) application to one eye; type: in vivo, Cynomolgus monkeys; conditions: 6755.1 μg to OS via NIODP; for OD/OS retina ratio of DHA: undosed/dosed retina
Procedure: An experiment was performed to determine the biodisposition of DHA following topical application to the periorbital skin that surrounds the anterior portion of the globe was performed.
Docosahexaenoic acid (DHA) is an omega-3 fatty acid and an essential component for neuronal formation, function and protection. […] […] High concentrations of DHA (from 35.6 to 97.3 μg/g) were detected in the undoes retina, which is similar to the dosed retina.
Moreover, compared to the baseline retina/plasma ratio of 7-fold, and with no significant changes in plasma, the retina/plasma ratios of DHA in the undosed eye were at least 30-fold at each post dose timepoint, signifying that the undosed retina uptake of DHA was not from blood circulation.

[2] = DHA distribution after single periorbital skin administration; type: in vivo, Bama minipigs; conditions: for concentration at 3 h: Bama, minipig, topical, 6092 μg/eye
Procedure: In this example, 6092 μg/eye of DHA was applied to the periorbital skin of a left eye of a Bama minipig. […] 27133.8 ng/g of tissue and 24795.8 ng/g of tissue of DHA was measured in the left and right halves of the brain, respectively. Taking the average of these two numbers, the amount of DHA present in the brain 3 hours post-dosage was 25964.9 ng/g.
Given that the average Bama pig brain weighs around 60 g, the amount of DHA delivered to the brain can be estimated to be 312,408 ng or 312 μg. Therefore, the percentage of administered dose=312 μg delivered to brain/6092 μg dosed=5.1% of DHA topically administered to the pig via periorbital administration was delivered to the brain. As a comparison, only about 0.025% of DHA that is orally administered is delivered to the brain or CNS.

[3] = oral administration; comparison value; cited from earlier work
[4] = 3 h, DHA 6092 μg to periorbital skin of left eye

CC/C=C\C/C=C\C/C=C\C/C=C\C/C=C\C/C=C\CCC(=O)O [DHA, docosahexaenoic acid]
concentration at 3 h ([1]; cynomolgus monkey, vitreous humor of the dosed left eye (OS), topical, OS (dosed eye), 3 h, read-out: DHA in vitreous humor): 0 ng/mL
concentration at 6 h ([1]; cynomolgus monkey, vitreous humor of the dosed left eye (OS), topical, OS (dosed eye), 6 h, read-out: DHA in vitreous humor): 0 ng/mL
concentration at 24 h ([1]; cynomolgus monkey, vitreous humor of the dosed left eye (OS), topical, OS (dosed eye), 24 h, read-out: DHA in vitreous humor): 0 ng/mL
concentration at 0.5 h ([1]; cynomolgus monkey, vitreous humor of the undosed right eye (OD), topical, OD (undosed eye), 0.5 h, read-out: DHA in vitreous humor): 0 ng/mL
concentration at 3 h ([1]; cynomolgus monkey, vitreous humor of the undosed right eye (OD), topical, OD (undosed eye), 3 h, read-out: DHA in vitreous humor): 0 ng/mL
concentration at 6 h ([1]; cynomolgus monkey, vitreous humor of the undosed right eye (OD), topical, OD (undosed eye), 6 h, read-out: DHA in vitreous humor): 0 ng/mL
concentration at 24 h ([1]; cynomolgus monkey, vitreous humor of the undosed right eye (OD), topical, OD (undosed eye), 24 h, read-out: DHA in vitreous humor): 0 ng/mL
OD/OS retina ratio of DHA ([1]; 0 h (baseline)): 100%
OD/OS retina ratio of DHA ([1]; 0.5 h): 64%
OD/OS retina ratio of DHA ([1]; 3 h): 146%
OD/OS retina ratio of DHA ([1]; 6 h): 99%
OD/OS retina ratio of DHA ([1]; 24 h): 75%
Drug Concentration in Plasma ([2]; 0 h, DHA 6092 μg to periorbital skin of left eye): BLQ
Drug Concentration in Plasma ([2]; 1 h, DHA 6092 μg to periorbital skin of left eye): BLQ
Percentage of administered dose delivered to the brain ([2]; 3 h, DHA 6092 μg periorbital, whole brain estimate): 5.1%
% of administered dose: Cerebrospinal fluid [2, 4]: 0%
% of administered dose: brain-left [2, 4]: 6%
% of administered dose: brain-right [2, 4]: 4%
% of administered dose: inferior rectus muscle-left [2, 4]: 0.004%
% of administered dose: inferior rectus muscle-right [2, 4]: 0.01%
% of administered dose: lateral rectus muscle-left [2, 4]: 0.02%
% of administered dose: lateral rectus muscle-right [2, 4]: 0.03%
% of administered dose: medial rectus muscle-left [2, 4]: 0.01%
% of administered dose: medial rectus muscle-right [2, 4]: 0.01%
% of administered dose: optic nerve-left [2, 4]: 0.03%
% of administered dose: optic nerve-right [2, 4]: 0.05%
% of administered dose: retina-left [2, 4]: 0.2%
% of administered dose: retina-right [2, 4]: 0.1%
% of administered dose: superior rectus muscle-left [2, 4]: 0.01%
% of administered dose: superior rectus muscle-right [2, 4]: 0%
Drug Concentration in Plasma [2, 4]: BLQ
concentration at 3 h ([2]; brain (average of left and right halves), 3 h, DHA 6092 μg to periorbital skin of left eye, read-out: Average DHA present in the brain (left and right halves)): 26000 ng/g
concentration at 3 h ([2]; brain, left half, 3 h, DHA 6092 μg to periorbital skin of left eye, read-out: Drug Concentration in Tissue: brain-left): 27100 ng/g
concentration at 3 h ([2]; brain, right half, 3 h, DHA 6092 μg to periorbital skin of left eye, read-out: Drug Concentration in Tissue: brain-right): 24800 ng/g
concentration at 3 h ([2]; cerebrospinal fluid, 3 h, DHA 6092 μg to periorbital skin of left eye, read-out: Drug Concentration in Tissue: Cerebrospinal fluid): 0 ng/g
concentration at 3 h ([2]; inferior rectus muscle, left (dosed side), 3 h, DHA 6092 μg to periorbital skin of left eye, read-out: Drug Concentration in Tissue: inferior rectus muscle-left): 2750 ng/g
concentration at 3 h ([2]; inferior rectus muscle, right (undosed side), 3 h, DHA 6092 μg to periorbital skin of left eye, read-out: Drug Concentration in Tissue: inferior rectus muscle-right): 2340 ng/g
concentration at 3 h ([2]; lateral rectus muscle, right, 3 h, DHA 6092 μg to periorbital skin of left eye, read-out: Drug Concentration in Tissue: lateral rectus muscle-right): 1980 ng/g
concentration at 3 h ([2]; lateral rectus muscle, 3 h, DHA 6092 μg to periorbital skin of left eye, read-out: Drug Concentration in Tissue: lateral rectus muscle-left): 8100 ng/g
concentration at 3 h ([2]; medial rectus muscle, left (dosed side), 3 h, DHA 6092 μg to periorbital skin of left eye, read-out: Drug Concentration in Tissue: medial rectus muscle-left): 2720 ng/g
concentration at 3 h ([2]; medial rectus muscle, right, 3 h, DHA 6092 μg to periorbital skin of left eye, read-out: Drug Concentration in Tissue: medial rectus muscle-right): 1520 ng/g
concentration at 3 h ([2]; optic nerve, left (dosed side), 3 h, DHA 6092 μg to periorbital skin of left eye, read-out: Drug Concentration in Tissue: optic nerve-left): 10400 ng/g
concentration at 3 h ([2]; optic nerve, right (undosed side), 3 h, DHA 6092 μg to periorbital skin of left eye, read-out: Drug Concentration in Tissue: optic nerve-right): 15300 ng/g
concentration at 3 h ([2]; retina, left (dosed side), 3 h, DHA 6092 μg to periorbital skin of left eye, read-out: Drug Concentration in Tissue: retina-left): 61700 ng/g
concentration at 3 h ([2]; retina, right (undosed side), 3 h, DHA 6092 μg to periorbital skin of left eye, read-out: Drug Concentration in Tissue: retina-right): 42100 ng/g
concentration at 3 h ([2]; superior rectus muscle, right, 3 h, DHA 6092 μg to periorbital skin of left eye, read-out: Drug Concentration in Tissue: superior rectus muscle-right): 0 ng/g
concentration at 3 h ([2]; superior rectus muscle, 3 h, DHA 6092 μg to periorbital skin of left eye, read-out: Drug Concentration in Tissue: superior rectus muscle-left): 3050 ng/g
Share of orally administered DHA delivered to the brain or CNS [3]: about 0.025%
